Measurements taken from PMC9551036, “A selective and orally bioavailable VHL-recruiting PROTAC achieves SMARCA2 degradation in vivo” (Nature Communications, 2022).
Read-outs that look alike come from different tables or passages of the source.

Experiment: Cell viability assay (CellTiter Glo) in a panel of cell lines
Format: cell-based, human
Details: for EC50: Homo sapiens; for viability at 1 µM / viability at 0.316 µM / viability at 1.25 µM / viability at 0.313 µM / viability at 0.1 µM: human; for viability at 1 µM: log10 conc -6 mol/l; for viability at 0.316 µM: log10 conc -6.50031 mol/l; for viability at 1.25 µM: log10 conc -5.90309 mol/l; for viability at 0.313 µM: log10 conc -6.50446 mol/l; for viability at 0.1 µM: log10 conc -7 mol/l
Description: 500–2000 cells were seeded in white, clear bottom 96-well plates (Corning or Perkin Elmer) in 180–200 µl medium per well. The next day, compounds were added using a digital dispenser and a T0 sample was measured for reference. Cells were incubated for 144–192 h, and viability (luminescence) was measured using CellTiter Glo or CellTiter Glo 2.0 (Promega) according to manufacturer’s instructions after equilibrating cells and reagents at room temperature and 10–20 min incubation time while shaking.

Cc1ncsc1-c1ccc(C(CCC(C)CCN2CCC(c3ccc4c(c3)n(C3CCCC3)c3nc(=O)c5c(Br)cccc5n43)CC2)NC(=O)C2CC(O)CN2C(=O)C(NC(=O)C2(F)CC2)C(C)(C)C)cc1 (centres unmarked) [ACBI2]
EC50 (A549, A549, read-out: LogEC50 (viability) (converted)): 29.3 nM
EC50 (A549, A549, values derived from curves in Extended Fig 4b, read-out: EC50 mean): 29.3 nM
EC50 (HCC364, HCC-364, read-out: LogEC50 (viability) (converted)): 70.8 nM
EC50 (HCC364, HCC-364, values derived from curves in Extended Fig 4b, read-out: EC50 mean): 70.8 nM
EC50 (HCC515, HCC-515, read-out: LogEC50 (viability) (converted)): 2.11 nM
EC50 (HCC515, HCC-515, values derived from curves in Extended Fig 4b, read-out: EC50 mean): 2.11 nM
EC50 (HCC4006, HCC4006, read-out: LogEC50 (viability) (converted)): 191 nM
EC50 (HCC4006, HCC4006, values derived from curves in Extended Fig 4b, read-out: EC50 mean): 191 nM
EC50 (LXFA 629L, LXFA_629L, read-out: LogEC50 (viability) (converted)): 16.5 nM
EC50 (LXFA 629L, LXFA_629L, values derived from curves in Extended Fig 4b, read-out: EC50 mean): 16.5 nM
EC50 (LXFA_923L, read-out: LogEC50 (viability) (converted)): 4.36 nM
EC50 (LXFA_923L, values derived from curves in Extended Fig 4b, read-out: EC50 mean): 4.35 nM
EC50 (LXFL 529L, LXFL_529L, read-out: LogEC50 (viability) (converted)): 0.382 nM
EC50 (LXFL 529L, LXFL_529L, values derived from curves in Extended Fig 4b, read-out: EC50 mean): 0.382 nM
EC50 (Lu-99, LU99, read-out: LogEC50 (viability) (converted)): 132 nM
EC50 (Lu-99, LU99, values derived from curves in Extended Fig 4b, read-out: EC50 mean): 132 nM
EC50 (MP38, read-out: LogEC50 (viability) (converted)): 8.75 nM
EC50 (MP38, values derived from curves in Extended Fig 4b, read-out: EC50 mean): 8.75 nM
EC50 (NCI-H1355, NCI-H1355, read-out: LogEC50 (viability) (converted)): 15.6 nM
EC50 (NCI-H1355, NCI-H1355, values derived from curves in Extended Fig 4b, read-out: EC50 mean): 15.6 nM
EC50 (OV-90, OV-90, read-out: LogEC50 (viability) (converted)): 67.5 nM
EC50 (OV-90, OV-90, values derived from curves in Extended Fig 4b, read-out: EC50 mean): 67.5 nM
EC50 (SK-MEL-5, SK-MEL-5, read-out: LogEC50 (viability) (converted)): 2.82 nM
EC50 (SK-MEL-5, SK-MEL-5, values derived from curves in Extended Fig 4b, read-out: EC50 mean): 2.82 nM
viability at 1 µM (A549 cells, A549): 44%
viability at 0.316 µM (A549 cells, A549): 43.1%
viability at 1.25 µM (HCC4006 cells, HCC4006): 42.2%
viability at 0.313 µM (HCC4006 cells, HCC4006): 53.4%
viability at 1.25 µM (HCC-364 cells, HCC-364): 14.6%
viability at 0.313 µM (HCC-364 cells, HCC-364): 20.4%
viability at 1 µM (HCC-515 cells, HCC-515): 15%
viability at 0.316 µM (HCC-515 cells, HCC-515): 22.4%
viability at 1.25 µM (KYSE-30 cells, KYSE-30): 91.1%
viability at 0.313 µM (KYSE-30 cells, KYSE-30): 92.8%
viability at 0.313 µM (LU99 cells, LU99): 30.1%
viability at 1 µM (LXFA 629L cells, LXFA_629L): 14.9%
viability at 0.316 µM (LXFA 629L cells, LXFA_629L): 24.7%
viability at 1 µM (LXFA 923L cells, LXFA_923L): 13.6%
viability at 0.316 µM (LXFA 923L cells, LXFA_923L): 21.4%
viability at 1 µM (LXFL 529L cells, LXFL_529L): 4.39%
viability at 0.316 µM (LXFL 529L cells, LXFL_529L): 6.27%
viability at 0.1 µM (LXFL 529L cells, LXFL_529L): 9.52%
viability at 1 µM (LXFL 1121L cells, LXFL_1121L): 90.4%
viability at 0.316 µM (LXFL 1121L cells, LXFL_1121L): 92.1%
viability at 0.1 µM (LXFL 1121L cells, LXFL_1121L): 89.5%
viability at 1 µM (MP38 cells, MP38): 1.87%
viability at 0.316 µM (MP38 cells, MP38): 0.609%
viability at 0.1 µM (MP38 cells, MP38): 1.6%
viability at 1.25 µM (NCI-H23 cells, NCI-H23): 75.3%
viability at 0.313 µM (NCI-H23 cells, NCI-H23): 76.1%
viability at 1.25 µM (OV-90 cells, OV-90): 35.5%
viability at 0.313 µM (OV-90 cells, OV-90): 45.5%
viability at 1.25 µM (SK-MEL-5 cells, SK-MEL-5): 1.81%
viability at 0.313 µM (SK-MEL-5 cells, SK-MEL-5): 2.34%
viability at 1.25 µM (TOV-112D cells, TOV-112D): 91.7%
viability at 0.313 µM (TOV-112D cells, TOV-112D): 103%
